# Measured values from publication PMC5431883, “Enhancing Specific Disruption of Intracellular Protein Complexes by Hydrocarbon Stapled Peptides Using Lipid Based Delivery” (Scientific Reports, 2017).
# Entries after “also recorded” stand apart in the source; their conditions may differ. Read-outs that look alike come from different tables or passages of the source. Positions of bridges follow the written chain, without caps; N, C: chain ends. Non-standard residues stand in square brackets, D forms with d. Residues, ends and D or L forms follow the SMILES beside them. R8 = C=CCCCCCC[C@@](C)(N)C(=O)O; S5 = C=CCCC[C@](C)(N)C(=O)O; Ahx = NCCCCCC(=O)O
# What was measured:
# [1] = biological target: T1, Mdm2 (1-125) (Homo sapiens, UniProt Q00987); assay: Mdm2 competitive fluorescence anisotropy assay (FAM-labeled 12/1 peptide displacement); type: binding
# T1 construct: Purified MDM2 (1-125) protein was titrated against 50 nM carboxyfluorescein (FAM)-labeled; GST (N, cleaved yes); made in house; host or cells: E. coli BL21 DE3 (pGEX-6P-1)
# [2] = test system: T22 p53 reporter cells; assay: p53 gene reporter assay (β-galactosidase) in T22 cells; type: cell-based, murine; settings: 18 h, 1% DMSO, normalised to 25 µM Nutlin, 4 parameter fit to 10 point titration
# Procedure: T22 cells, which were stably transfected with a p53 responsive β-galactosidase reporter, were seeded into a 96-well plate at a cell density of 8000 cells per well. Cells were also maintained in Dulbecco’s Minimal Eagle Medium (DMEM) with 10% fetal calf serum (FCS) and 1% (v/v) penicillin/streptomycin. The cells were incubated for 24 hours and followed by cell media removal and replacement with 90 µl of fresh DMEM either containing 10% FCS or 0% FCS. 10 µl of each compound was then added directly to each well and incubated for 18 hours. Final working concentration of DMSO was 1% v/v. […] Measurements were carried out using an Envision multiplate reader (Perkin-Elmer). […] This was then used to normalize the experimental results.
# [3] = test system: T22 cells; assay: Lactate dehydrogenase (LDH) release assay in T22 cells; type: cell-based, murine; settings: for LDH Release (T22 Cells), 0% FCS (LDH50) / LDH Release (T22 Cells), 10% FCS (LDH50): 2 h treatment, normalised to 0.1% Triton X-100 lysis, 4 parameter fit to 10 point titration
# Procedure: (§1) T22 cells or HEK 293 cells were seeded into a 96-well plate at a cell density of 5000 cells per well. Cells were maintained in Dulbecco’s Minimal Eagle Medium (DMEM) with 10% fetal bovine serum (FBS) and 1% (v/v) penicillin/streptomycin. The cells were incubated for 24 hours followed by cell media removal and addition of 90 µl of DMEM either with or without 10% FCS. Cells were then treated with compounds/peptide for 2 hours in DMEM with or without 10% FBS. Final working concentration of DMSO was 1% v/v. Corresponding negative control wells with 1% DMSO only were also prepared. Cytosolic lactate dehydrogenase release was detected using the cytoTox 96® non-radioactive cytotoxicity Assay kit (Promega) as per manufacturer’s instructions. Measurements were carried out using an Envision multiplate reader (Perkin-Elmer). Maximum LDH release was defined as the amount of LDH released when cells were lysed in the presence of 0.1% TRITON X-100 and was used to normalize the results.
# [4] = biological target: T2, Mdm2:p53 complex (Homo sapiens, UniProt Q00987); assay: NanoBRET Mdm2:p53 live cell assay; type: cell-based; settings: HEK293 cells, 0% FCS versus 10% FCS
# T2 construct: host or cells: HEK293
# Procedure: all competitive types of experiments, it is assumed that [P]t > [L]st, otherwise considerable amounts of free labeled ligand would always be present and would interfere with measurements. Kd1 is the […]
# experimentally determined as described in the previous paragraph. The FAM-labeled peptide was dissolved in dimethyl sulfoxide (DMSO) at 1 mM and diluted into experimental buffer. Readings were carried out with an Envision Multilabel Reader (PerkinElmer). Experiments were carried out […]
# Tween 20 buffer. All titrations were carried out in triplicate. Curve-fitting was carried out using […]
# Negative control titrations of the ligands under investigation were also carried out with the fluorescently labeled peptide (in the absence of MDM2) to ensure no interactions were occurring between the ligands and FAM-labeled peptide. […]
# which would otherwise indicate an unintended interaction between the ligand and the FAM-labeled peptide to be displaced from the MDM2 binding site.
# Nanobret Mdm2:p53 Cell Based Assay
# HEK293 cells were seeded at a cell density of 250,000 cells per well into a 6 well plate and incubated overnight at 37 °C and 5% CO2 in DMEM with 0.3 mg/ml glutamine, 100 IU/ml penicillin, 100 μg/ml streptomycin and 10% fetal calf serum. Each well was transfected with a […]
# [5] = test system: HEK293 cells; assay: Lactate dehydrogenase (LDH) release assay in HEK293 cells; type: cell-based; settings: 2 hour treatment, 12.5, 25 and 50 µM, normalised to 0.1% Triton X100 (Figure S1); for LDH release in HEK293 cells, absence of serum (in words): 0% FCS; for LDH release in HEK293 cells, high serum conditions (in words): 10% FCS
# Procedure: as §1, with “results. […]” for “results.”
# to induce LDH release in HEK293 cells after a 2 hour treatment period in A) the absence of FCS and B) the presence of 10% FCS. Compounds were tested at concentrations of 12.5 µM, 25 µM and 50 µM. Results were normalized to maximal LDH release as measured by treatment with 0.1% Triton X100.
# (1 picture or pasted object on this page, not shown here)
# T2 sequence (Q00987 whole entry, one chain of several): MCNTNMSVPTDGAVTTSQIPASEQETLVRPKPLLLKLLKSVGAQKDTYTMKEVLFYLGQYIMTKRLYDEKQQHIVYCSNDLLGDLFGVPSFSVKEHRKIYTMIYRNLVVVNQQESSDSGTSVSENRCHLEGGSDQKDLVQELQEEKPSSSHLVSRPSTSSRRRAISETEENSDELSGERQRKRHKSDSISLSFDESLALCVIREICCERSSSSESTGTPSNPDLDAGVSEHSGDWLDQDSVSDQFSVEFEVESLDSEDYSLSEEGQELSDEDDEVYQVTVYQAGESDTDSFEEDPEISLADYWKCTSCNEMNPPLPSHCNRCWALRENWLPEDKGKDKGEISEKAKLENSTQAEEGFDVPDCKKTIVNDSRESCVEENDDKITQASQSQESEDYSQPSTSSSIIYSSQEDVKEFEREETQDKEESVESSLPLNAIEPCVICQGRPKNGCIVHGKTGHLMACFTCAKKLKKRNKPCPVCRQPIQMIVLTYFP
# T1 sequence (Q00987 1-125): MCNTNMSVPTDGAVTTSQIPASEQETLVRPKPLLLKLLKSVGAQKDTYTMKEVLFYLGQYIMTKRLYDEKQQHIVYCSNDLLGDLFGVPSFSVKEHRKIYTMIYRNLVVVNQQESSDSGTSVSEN
SMILES,improvement in affinity for Mdm2 over the library template sequence (sMTIDE-02) [1] [fold],"Kd ([1]; competitive fluorescence anisotropy, text refers to Table S1, read-out: Kd for binding to Mdm2 (as quoted in the text from Table S1)) [nM]","EC50 ([2]; 0% FCS, read-out: P53 Activation (T22 Cells), 0% FCS (p53ACT50 / EC50)) [nM]","EC50 ([2]; read-out: P53 Activation (T22 Cells), 10% FCS (p53ACT50 / EC50), 10% FCS) [nM]","LDH Release (T22 Cells), 0% FCS (LDH50) [3]","LDH Release (T22 Cells), 10% FCS (LDH50) [3]",improvement of NanoBRET IC50 in serum free conditions over high serum conditions [4] [fold],"LDH release in HEK293 cells, absence of serum (in words) [5]","LDH release in HEK293 cells, high serum conditions (in words) [5]","cytotoxicity (LDH leakage) in the library screen, absence of serum (in words) ([3]; absence of serum, within 2 hours after treatment)"
CC(=O)N[C@@H](CCCCN)C(=O)N[C@@H](CCCCN)C(=O)NCCCCCC(=O)N[C@H](C(=O)N[C@@H](CO)C(=O)N[C@@H](Cc1ccccc1)C(=O)N[C@]1(C)CCCCCCC=CCCC[C@@](C)(C(=O)N[C@@H](CCC(=O)O)C(=O)N[C@@H](CC(N)=O)C(=O)N[C@@H](Cc2ccccc2)C(N)=O)NC(=O)[C@H](CC(C)C)NC(=O)[C@H](CC(C)C)NC(=O)[C@H](C)NC(=O)[C@H](Cc2c[nH]c3ccccc23)NC(=O)[C@H](Cc2ccc(O)cc2)NC(=O)[C@H](CCC(=O)O)NC1=O)[C@@H](C)O [VIP-82] (Ac-KK[Ahx]TSF[R8]EYWALL[S5]ENF-NH2; staple 7-14),2,24.4 ± 2.3,800 ± 100,10000 ± 100,did not cause any measurable LDH release; also recorded: No release,No release,4.5,remained inert,absence of LDH release,–
CC(=O)N[C@H](C(=O)N[C@@H](CO)C(=O)N[C@@H](Cc1ccccc1)C(=O)N[C@]1(C)CCCCCCC=CCCC[C@@](C)(C(N)=O)NC(=O)[C@H](CC(C)C)NC(=O)[C@H](CC(C)C)NC(=O)[C@H](C)NC(=O)[C@H](Cc2c[nH]c3ccccc23)NC(=O)[C@H](Cc2ccc(O)cc2)NC(=O)[C@H](CCC(=O)O)NC1=O)[C@@H](C)O [sMTIDE-02],–,–,–,–,50.5 ± 1.7 µM,No release,9,induced significant amounts of LDH release,absence of LDH release,induced LDH leakage
